Values quoted from earlier work, collected in patent publication US7524881B2, “Production of Δ 9 tetrahydrocannabinol” (Resolution Chemicals Limited, priority 2002, dated 2009).

Details: for psychomimetic activity: qualitative background statement

Row | Structure (SMILES) | psychomimetic activity relative to Δ8-THC (compared with Δ8-THC) | psychomimetic activity
1 | CCCCCc1cc(O)c2c(c1)OC(C)(C)[C@@H]1CCC(C)=C[C@@H]21 [Δ9-THC, Delta 9 tetrahydrocannabinol] | 20 times | 
2 | C=C(C)[C@@H]1CCC(C)=C[C@H]1c1c(O)cc(CCCCC)cc1O [Cannabidiol (CBD), cannabidiol] |  | little activity
3 | CCCCCc1cc2c(c(O)c1C(=O)O)[C@@H]1C=C(C)CC[C@H]1C(C)(C)O2 [THCA-B, Δ9-THC carboxylic acid] |  | psychomimetically inactive
4 | CCCCCc1cc2c(c(O)c1C(=O)O)[C@@H]1C=C(C)CC[C@H]1C(C)(C)O2 [THCA-A, Δ9-THC carboxylic acid] |  | psychomimetically inactive
